Assay results taken from patent US20140288040A1, “SUBSTITUTED BENZYLAMINE COMPOUNDS, THEIR USE IN MEDICINE, AND IN PARTICULAR THE TREATMENT OF HEPATITIS C VIRUS (HCV) INFECTION” (ASTEX THERAPEUTICS LIMITED, priority 2011, published 2014).
Structures can show the parent of a compound that is named as a salt. Where two headings read alike, the source gives them in different places.

Key:
[1] = molecular target: T1, HCV NS3 protease (full length NS34a) (Hepatitis C virus genotype 1b, UniProt P26663); experiment: HCV NS3 protease assay (FRET, full length NS34a); type: biochemical
T1 construct: The protease activity of the full length NS34a was measured using a FRET-based assay; made in house
T1 sequence (P26663 1658-1711): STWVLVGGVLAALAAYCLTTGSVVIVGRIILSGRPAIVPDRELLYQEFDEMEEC
T1 sequence (P26663 1027-1657): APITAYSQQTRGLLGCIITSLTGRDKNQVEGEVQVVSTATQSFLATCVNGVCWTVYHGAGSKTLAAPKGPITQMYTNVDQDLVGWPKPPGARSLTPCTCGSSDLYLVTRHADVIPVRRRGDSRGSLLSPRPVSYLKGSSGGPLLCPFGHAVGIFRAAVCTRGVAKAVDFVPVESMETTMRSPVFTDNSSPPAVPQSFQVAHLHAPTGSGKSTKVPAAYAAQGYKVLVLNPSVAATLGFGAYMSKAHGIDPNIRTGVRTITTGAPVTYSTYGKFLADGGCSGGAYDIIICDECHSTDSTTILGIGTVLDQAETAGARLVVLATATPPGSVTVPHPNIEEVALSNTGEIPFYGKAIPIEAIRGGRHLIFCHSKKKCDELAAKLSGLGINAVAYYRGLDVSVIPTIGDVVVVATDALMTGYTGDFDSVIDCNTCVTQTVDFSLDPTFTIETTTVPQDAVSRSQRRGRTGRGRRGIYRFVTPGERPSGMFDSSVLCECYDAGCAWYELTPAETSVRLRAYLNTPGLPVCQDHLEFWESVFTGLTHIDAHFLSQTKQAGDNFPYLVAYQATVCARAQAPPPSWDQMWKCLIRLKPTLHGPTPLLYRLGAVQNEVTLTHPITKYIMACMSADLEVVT
How it was run: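 FRET readout over 30 minutes at room temperature, with IC50 fitted to initial rates from replicate curves. Enzyme was full-length NS34a; substrate a peptide from the NS4AB cleavage site labelled with QXL520 and 5-FAMsp; buffer 50 mM Tris pH8 containing 20 mM DTT, 1% CHAPS, 10% glycerol and 5% DMSO.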

[2] = tested on: HCV subgenomic replicon in Huh-7 cells; experiment: Replicon assay, EC50 luciferase readout; type: cell-based, hepatitis C virus (HCV)
Procedure: The activities of compounds of the invention against HCV in a cellular environment were analysed using a replicon assay as described below.
Thus, Huh-7 cells persistently infected with an HCV-RNA construct (Bartenschlager, R. Hepatitis C replicons: potential role for drug development. Nature Rev. Drug Discov. 1, 911-916 (2002)) comprising: 5′ and 3′ non-translated regions (NTR); the non-structural genes NS3 to NS5b; as well as the G418 drug resistance gene, neomycin, (for selection of cells carrying HCV replicon RNA) fused to the firefly Luciferase reporter gene (pFK13889luc-ubi-neoNS3-3′ET), were used to determine the cell based antiviral activity of compounds using luciferase activity as an indirect readout of HCV RNA load. In this assay […] huh-7 cells persistently infected with the HCV subgenomic replicon construct above were platedwell in a 96 well tissue culture plate. The cells were allowed to attach overnight in DMEM medium supplemented with 10% FBS 1% NEAA, and 250 μgml gentamicin. The following day the medium was replaced with 200 μlwell of fresh medium as described above lacking gentamicin. […] Plates were then incubated at 37° C. in an atmosphere of 5% CO2 and air for 72 h. […] The plate was then read at 535 nm (excitation) and 590 nm (emission) on a SpectraMax Gemini reader (Molecular Devices) to determine the number of viable cells by measuring the conversion of rezasurin (Alamar blue) to resorufin in response to mitochondrial activity. In order to determine the antiviral effect of these compounds EC50 values were determined by measuring the luciferase activity of the cells. Alamar blue solution was removed from the wells and replaced with 100 μlwell of medium along with 100 μlwell of Bright-Glo reagent and incubated at room temperature for 5 minutes before transferring 100 μlwell to a white bottom 96 well plate to read in a luminometer as described in the Bright-Glo Luciferase Assay System protocol (promega).

[3] = protease activity of full length NS34a, FRET peptide substrate, read-out: Activity IC50
[4] = Hepatitis C virus, Huh-7, 72 h, Huh-7 replicon cells, 72 h, single value, or second value of a pair x:y, read-out: Activity EC50 (μM) (EC50 luciferase readout)
[5] = IC50 values of 10-150 μM against the protease activity of the full length NS34a, or at least 40% inhibition of protease activity at a concentration of 100 μM
[6] = Hepatitis C virus, Huh-7, 72 h, read-out: Activity EC50 (μM) (EC50 luciferase readout), Huh-7 replicon cells, 72 h, single value, or second value of a pair x:y
[7] = Hepatitis C virus, Huh-7, replicon assay, set in line with previous observations, read-out: pre-determined EC50 set for the combination experiments

SMILES | IC50 [1, 3] | EC50 [2, 4] | also measured
CC[C@@H](N[C@H](C)CC(=O)NCCN(C)C)c1ccc(Cl)c(Oc2ccccc2)c1F [Example 242] | 3900 nM | 0.89 µM | 
CC[C@@H](N[C@@H](C)CC(N)=O)c1ccc(Cl)c(Oc2ccc(N)c(C)c2)c1F [Example 127] | 110 nM | 0.014 µM | 
CC[C@@H](N[C@@H](C)CC(=O)N1CCCNCC1)c1ccc(Cl)c(Oc2ccccc2)c1F [Example 236] |  | 1.7 µM | IC50 [1, 5]: 10000 to 150000 nM; inhibition at 3 µM ([1]; read-out: Activity % inhibition @ 3 μM, 3 μM compound): 50%
CC[C@H](NCC(N)=O)c1ccc(F)c(Oc2ccccc2)c1F [Example 301] |  | 26 µM | 
CC[C@@H](N[C@@H](C)CC(N)=O)c1ccc(Cl)c(Oc2ccc(CC#N)cc2)c1F [Example 211] | 72 nM |  | EC50 [2, 6]: 0.066 µM
CC[C@@H](N[C@@H](C)CC(N)=O)c1ccc(Cl)c(Oc2ccc(C#N)c(C)c2)c1F [Example 237] | 87 nM | 0.031 µM | 
CC[C@@H](N[C@@H](C)CC(N)=O)c1ccc(Cl)c(Oc2ccc(-c3cnco3)cc2)c1F [Example 219] | 220 nM | 0.32 µM | 
CC[C@@H](N[C@@H](C)CC(N)=O)c1ccc(Cl)c(Oc2cnc(N)cn2)c1F.Cl [Example 429] |  | 3 µM | 
CC[C@@H](N[C@@H](C)CC(=O)NN)c1ccc(Cl)c(Oc2ccccc2)c1F [Example 154] | 180 nM | 17 µM | 
CC(C)NCC(N)c1ccc(F)c(Oc2ccccc2)c1F (centres unmarked) [Example 19, 1-(2,4-Difluoro-3-phenoxy-phenyl)-N*2*-isopropyl-ethane-1,2-diamine. dihydrochloride] | 9800 nM | 10 µM | 
CC[C@@H](N[C@@H](C)CC(N)=O)c1ccc(Cl)c(Oc2ccc(F)c(C(N)=O)c2)c1F.Cl [Example 419] |  | 0.82 µM | 
CCC(NCC(C)O)c1ccc(F)c(Oc2ccccc2)c1F (mixture of isomers) [Example 53, 1-[1-(2,4-Difluoro-3-phenoxy-phenyl)-propylamino]-propan-2-ol.hydrochloride] | 5000 nM | 26 µM | 
CC[C@@H](N[C@@H](C)CC(=O)N[C@@H]1CCNC1)c1ccc(Cl)c(Oc2ccccc2)c1F [Example 263] | 390 nM | 1.6 µM | 
CC[C@@H](Nc1ncc(CN)cn1)c1ccc(Cl)c(Oc2ccccc2)c1F [Example 8, (5-Aminomethyl-pyrimidin-2-yl)-[(R)-1-(4-chloro-2-fluoro-3-phenoxy-phenyl)-propyl]-amine hydrochloride] | 330 nM | 10 µM | 
CC[C@@H](N[C@@H](C)CC(N)=O)c1ccc(Cl)c(Oc2ccc3c(c2)OCCN3)c1F.Cl [Example 409] |  | 0.02 µM | 
CC[C@@H](N[C@@H](C)CC(N)=O)c1ccc(Cl)c(Oc2ccc(NC(C)=O)nc2)c1Cl [Example 458] |  | 3.5 µM | 
CCNC(=O)CNC(=O)C[C@H](C)N[C@H](CC)c1ccc(Cl)c(Oc2ccccc2)c1F [Example 243] |  | 3.8 µM | 
CC[C@@H](N[C@@H](C)CC(N)=O)c1ccc(Cl)c(Oc2ccc3c(c2)OCCO3)c1F.Cl [Example 410] |  | 0.31 µM | 
C[C@@H](CC(N)=O)N[C@@H](c1ccc(Cl)c(Oc2ccccc2)c1F)C1CC1 [Example 459] |  | 0.63 µM | 
CC[C@@H](N[C@@H](C)CC(N)=O)c1ccc(Cl)c(Oc2ccc(NC(=O)N(C)C)cc2)c1F.Cl [Example 407] |  | 0.11 µM | 
CC[C@@H](N[C@@H](C)CC(N)=O)c1ccc(Cl)c(Oc2ccc(F)c(C(=O)NC)c2)c1F.Cl [Example 421] |  | 0.4 µM | 
CC[C@@H](N[C@@H](C)CC(N)=O)c1ccc(Cl)c(Oc2ccccc2)c1C [Example 468] |  | > 3 µM | 
CC[C@@H](N[C@@H](C)CC(N)=O)c1ccc(Cl)c(Oc2ccccn2)c1F.Cl [Example 413] |  | 3 µM | 
CC[C@@H](N[C@@H](C)CC(N)=O)c1ccc(Cl)c(Oc2ccc(-c3ccn[nH]3)cc2)c1F.Cl [Example 417] |  | 0.91 µM | 
CC[C@@H](N[C@@H](C)CC(N)=O)c1ccc(Cl)c(Oc2nc3cnccc3s2)c1F.Cl [Example 438] |  | > 3 µM | 

SMILES | IC50 [1, 3] | EC50 [2, 4] | also measured
CCC(NC1CCCNC1)c1ccc(F)c(Oc2ccccc2)c1F (centres unmarked) [Example 18] |  |  | EC50 ([2]; Huh-7 replicon cells, 72 h, single value, or second value of a pair x:y, read-out: Activity EC50 (μM) (EC50 luciferase readout)): 1.6 µM
C[C@@H](CC(N)=O)N[C@@H](c1ccc(Cl)c(Oc2ccc(C(N)=O)nc2)c1F)C1CC1.Cl [Example 456] |  | > 3 µM | 
CC(C)(C)OC(=O)N[C@H]1CCCCC/C=C\[C@@H]2C[C@@]2(C(=O)NS(=O)(=O)C2CC2)NC(=O)[C@@H]2C[C@@H](OC(=O)N3Cc4cccc(F)c4C3)CN2C1=O [Danoprevir, reference compound] |  |  | EC50 [2, 7]: 0.001 µM
CC[C@@H](N[C@@H](C)CC(N)=O)c1ccc(Cl)c(Oc2ncccn2)c1F.Cl [Example 431] |  | > 3 µM | 
CC[C@@H](NC(C)(C)CC(N)=O)c1ccc(Cl)c(Oc2ccc(N)nc2)c1F [Example 460, 3-{[(1R)-1-{3-[(6-aminopyridin-3-yl)oxy]-4-chloro-2-fluorophenyl}propyl]amino}-3-methylbutanamide hydrochloride (1:1)] |  | 0.13 µM | 
C[C@@H](CC(N)=O)N[C@@H](c1ccc(Cl)c(Oc2ccc(N)nc2)c1F)C1CC1.Cl [Example 454] |  |  | EC50 [2, 6]: 0.16 µM
CC(C)(C)C#Cc1cc(N(C(=O)[C@H]2CC[C@H](C)CC2)[C@H]2CC[C@H](O)CC2)c(C(=O)O)s1 [VX-222, Lomibuvir, reference compound] |  |  | EC50 [2, 7]: 0.003 µM
CC[C@@H](N[C@@H](C)CC(N)=O)c1ccc(Cl)c(Oc2ccc(F)c(C(=O)N3CCOCC3)c2)c1F.Cl [Example 423] |  | 1.4 µM | 
[2H]C([2H])([2H])C([2H])([2H])[C@@H](N[C@@H](C)CC(N)=O)c1ccc(Cl)c(Oc2ccccc2)c1F [Example 472] |  | > 3 µM | 
CC[C@@H](N[C@@H](C)CC(N)=O)c1ccc(Cl)c(Oc2ccc(F)c(C(=O)N(C)C)c2)c1F.Cl [Example 425] |  | 0.35 µM | 
CC[C@@H](N[C@@H](C)CC(N)=O)c1ccc(Cl)c(Oc2nc3ccccc3s2)c1F.Cl [Example 435] |  | 3 µM | 
CC[C@@H](N[C@@H](C)CC(N)=O)c1ccc(Cl)c(Oc2ccc(Cl)cc2)c1F.Cl [Example 400] |  | 3 µM | 
CC[C@@H](N[C@@H](C)CC(N)=O)c1ccc(Cl)c(Oc2ccc(N)cc2)c1F.Cl [Example 404] |  | 0.023 µM | 
CC[C@@H](N[C@@H](C)CC(N)=O)c1ccc(Cl)c(Oc2ccc(NC(C)=O)cc2)c1F [Example 405] |  | 0.3 µM | 
CC[C@H](NCCC(=O)NO)c1ccc(F)c(Oc2ccccc2)c1F [Example 302] |  | 6.9 µM | 
CC[C@@H](N)c1ccc(Cl)c(Oc2cccc(C#N)c2)c1F [Example 199] | 3800 nM |  | 
C[C@@H](CC(=O)NCCN)N[C@H](C)c1ccc(Cl)c(Oc2ccccc2)c1F [Example 339] |  |  | inhibition at 0.01 µM ([1]; read-out: Activity % inhibition @ 0.01 μM, 0.01 μM compound): 65%
COCC[C@@H](N)c1ccc(Cl)c(Oc2ccccc2)c1F [Example 337, (R)-1-(4-Chloro-2-fluoro-3-phenoxy-phenyl)-3-methoxy-propylamine hydrochloride] | 7600 nM |  | 
CC[C@@H](N)c1ccc(Cl)c(Oc2ccc(-c3nnc(C)o3)cc2)c1F [Example 181] | 2300 nM |  | 
CC[C@@H](N[C@@H](C)CC(N)=O)c1ccc(Cl)c(Oc2ncc(N)cn2)c1F.Cl [Example 433] |  | 1.6 µM | 
CCc1ncc(CNC(CC)c2ccc(F)c(Oc3ccccc3)c2F)[nH]1 (centres unmarked) [Example 38] | 9700 nM |  | 
CC[C@@H](N[C@H](C)CC(N)=O)c1ccc(Cl)c(Oc2ccc(-c3cnco3)c(C)c2)c1F [Example 318] | 6400 nM |  | 
CC[C@@H](N)c1ccc(Cl)c(Oc2ccc(F)c(COC(=O)NCC3CC3)c2)c1F [Example 190, Cyclopropylmethyl-carbamic acid 5-[3-((R)-1-amino-propyl)-6-chloro-2-fluoro-phenoxy]-2-fluoro-benzyl ester.hydrochloride] | 1800 nM |  | 
CC[C@@H](N[C@@H](C)CC(=O)NCC(=O)OC)c1ccc(Cl)c(Oc2ccccc2)c1F [Example 159] |  |  | IC50 [1, 5]: 10000 to 150000 nM
CC[C@@H](N[C@@H](C)CC(N)=O)c1ccc(Cl)c(Oc2ccc(C(N)=O)cc2)c1F.Cl [Example 444] |  |  | EC50 [2, 6]: 0.82 µM
